Earlier results on 1 compound are cited in US20120021064A1, “COMPOSITIONS FOR BOWEL PREPARATION AND METHODS OF USE THEREOF” (Salix Pharmaceuticals, Ltd., priority 2009, published 2012).

Molecules are shown by their SMILES. Read-outs that look alike come from different tables or passages of the source.

In the case of `CC(=O)Oc1ccc(C(c2ccc(OC(C)=O)cc2)c2ccccn2)cc1` [Bisacodyl], the “time to produce a bowel movement” value runs as follows: (enemas) “about 20 minutes”; (suppositories) “about an hour”.
